# Source: patent US6225307A, “Viral treatment” (priority 2000, dated 2001)
# Legend:
# HIV-1 integrase = HIV-1 integrase (Human immunodeficiency virus type 1 group M subtype B, UniProt P12497); experiment: Integrase inhibition assay; assay type: biochemical
# Source text: A biochemical integrase assay described by Craigie et at (HIV, vol. 2: A practical Approach) Biochemistry, Molecular Biology and Drug Discovery Ed. J. Karn 1995) to screen agents for their ability to inhibit HIV-1 integrase. In this system, a kinased oligonucleotide serves as the target of 3' processing and the subsequent strand transfer reaction. The 3' processing reaction involves the removal of 2 nucleotides from the 31 ends of the substrate and this is followed by the strand transfer reaction in which the 3' ends are joined to the exposed 5' ends. The 20 μl reaction mixture contains 25 mM MOPS (pH 7.2), […] BSA, 10 mM , β-mercaptoethanol, 10% glycerol, 7.5 mM MnCl2, 25 nM (7 ng) substrate (Oligo's Etc., Wilsonville, Ore.) and 200 nM (128 ng) integrase (NIAID AIDS Research and Reference Reagent Program, Bethesda, Md.). The reaction proceeds at 37° C. for 1-2 hours and is terminated by the addition of 20 μl of sequencing stop solution (USB Amersham, Arlington Heights, Ill.). The reaction products are visualized by autoradiography following electrophoresis in 15% polyacrylamide 6M Urea gel. The substrate migrates as a 30 mer, the product of 3' processing migrates as an N-2 band and the strand transfer products migrate more slowly at various sizes larger than the substrate.
# HIV-1 cell line, CEMSKI = experiment: Long term in vitro study, CEMSKI cells, reverse transcriptase analysis; assay type: cell-based; settings: for Reverse transcriptase data: 7 μg/ml
# Description: A microtiter-based reveres transcriptase (RT) reaction is utilized (Buckheit et al (1991) AIDS Research and Human Retroviruses 7:295-302). Tritiated thymidine triphosphate (NEN)(TTP) is resuspended in distilled water at 5 Ci/ml. Poly rA and oligo dT are prepared as a stock solution which is kept at -20° C. The RT reaction buffer is prepared fresh on a daily basis and consists of 125 μl 1M EGTA, 125 μl water, 125 μl Triton X-100, 50 μl Tris (pH 7.4), 50 μl MDDT, and 40 μl 1M MgCl2. These three solutions are mixed together in a ratio of 1 part TTP, 2.5 parts poly rA:oligo dT, 2.5 parts reaction buffer and 4 parts distilled water. Ten microliters of this reaction mixture is placed in a round bottom microtiter place and 15 μl of virus containing supernatant is added and mixed. The plate is incubated at 37° C. and incubated for 60 minutes. Following reaction, the reaction volume is spotted onto filter mats, washed 6 times for 5 minutes each in a 5% sodium phosphate buffer, 2 times for 1 minute each in distilled water, 2 times for 1 minute each in 70% ethanol, and then dried. The dried filter mat is placed in a plastic sample bag, Betaplate scintillation fluid is added and the bag is heat sealed. Incorporated radioactivity is quantified utilizing a Wallac Microbeta scintillation counter.
# Acute infection of most established human cell lines with HIV- I results in the eventual establishment of a constitutive virus-producing chronically infected cell line. The cells can be passaged for long periods of time in culture without loss of virus production. These cells may be utilized to evaluate the effects of anti-HIV compounds on syncytium formation or to evaluate the effects of anti-HIV compounds on levels of virus production from these cells. […] Each of the cells contains an integrated HIV genome or provirus. […]
# CEM-SS cells chronically infected with HIV isolate, for example SKI (CEM-SKI) are cultured in RPM1640 tissue culture medium supplemented with 10% fetal bovine serum and antibiotics. […] After a period of time, usually one week intervals of drug treatment, cells are evaluated to determine if the inhibitory activity of the compound has been affected by treatment of the cells with either compounds. […]
# The cell populations contain integrated copies of the HIV genome and constitutively produce HIV at relatively high levels or are latently infected and only produce virus after stimulation with phorbol esters, tumor necrosis factor or IL6(U1 and ACH2). Reductions in virus products were observed when quantifying supernatant reverse transcriptase activity,
# Toxicity Values are measured by XTT and activity of the compound in the tests is measured by a Reverse Transcriptase analysis. […]
smiles,measurement,setting,value
"CCC1(c2cccc(OC(=O)Nc3ccc(Cl)cc3)c2)CCCCN(C)C1=O (stereo not shown) [(4-chlorophenyl)-carbamic acid, 3-(hexahydro-3-ethyl-1-methyl-2-oxo-1H-azepin-3-yl) 2 phenyl ester]",IC50,HIV-1 integrase,> 249 µM
same,activity as an integrase inhibitor,HIV-1 integrase,did not show activity
same,"HIV-1 integrase inhibition, mean",HIV-1 integrase; 0.1 μg/ml,9908
same,"HIV-1 integrase inhibition, sample 1",HIV-1 integrase; 0.1 μg/ml,10151.6
same,"HIV-1 integrase inhibition, sample 2",HIV-1 integrase; 0.1 μg/ml,9664.3
same,remaining activity at 0.1 µg/mL,"HIV-1 integrase; 0.1 μg/ml, read-out: % no drug control",104%
same,"HIV-1 integrase inhibition, mean",HIV-1 integrase; 1 μg/ml,10075
same,"HIV-1 integrase inhibition, sample 1",HIV-1 integrase; 1 μg/ml,9644.6
same,"HIV-1 integrase inhibition, sample 2",HIV-1 integrase; 1 μg/ml,10505.5
same,remaining activity at 1 µg/mL,"HIV-1 integrase; 1 μg/ml, read-out: % no drug control",105%
same,"HIV-1 integrase inhibition, mean",HIV-1 integrase; 10 μg/ml,10097
same,"HIV-1 integrase inhibition, sample 1",HIV-1 integrase; 10 μg/ml,10964.5
same,"HIV-1 integrase inhibition, sample 2",HIV-1 integrase; 10 μg/ml,1129.7
same,remaining activity at 10 µg/mL,"HIV-1 integrase; 10 μg/ml, read-out: % no drug control",116%
same,"HIV-1 integrase inhibition, mean",HIV-1 integrase; 100 μg/ml,10942
same,"HIV-1 integrase inhibition, sample 1",HIV-1 integrase; 100 μg/ml,9648.5
same,"HIV-1 integrase inhibition, sample 2",HIV-1 integrase; 100 μg/ml,12235.7
same,remaining activity at 100 µg/mL,"HIV-1 integrase; 100 μg/ml, read-out: % no drug control",114%
same,Reverse transcriptase data,"HIV-1 cell line, CEMSKI; Day 4",8474
same,Reverse transcriptase data,"HIV-1 cell line, CEMSKI; Day 11",7217
same,Reverse transcriptase data,"HIV-1 cell line, CEMSKI; Day 18",9141
same,"Reverse transcriptase data, continued test","HIV-1 cell line, CEMSKI; run through 222 days",data remained consistent
